Assay results taken from ChEMBL document CHEMBL3046277, “Inheritance mode and realized heritability of resistance to imidacloprid in the brown planthopper, Nilaparvata lugens (Stål) (Homoptera: Delphacidae)” (2009).
Values after ≈ are worked out from the molar mass of the structure shown.

Tests used:
Assay type in all cases: functional
Nilaparvata lugens [1] = assay: Insecticidal activity against third instar nymph stage of imidacloprid-susceptible Nilaparvata lugens (brown planthopper) in rice stem assessed as mortality treated for 30 secs prior to nymph infestation measured at 96 hr post-drug treatment by rice-stem dipping method
Nilaparvata lugens [2] = assay: Resistance ratio of LC50 for Nilaparvata lugens (brown planthopper) F1' progeny to LC50 for imidacloprid-susceptible brown planthopper
Nilaparvata lugens [3] = assay: Resistance ratio of LC50 for Nilaparvata lugens (brown planthopper) F1 progeny to LC50 for imidacloprid-susceptible brown planthopper
Nilaparvata lugens [4] = assay: Resistance ratio of LC50 for imidacloprid-resistance Nilaparvata lugens (brown planthopper) to LC50 for imidacloprid-susceptible brown planthopper
Nilaparvata lugens [5] = assay: Insecticidal activity against Nilaparvata lugens (brown planthopper) offspring obtained after 23 selected generations in rice stem assessed as mortality treated for 30 secs prior to nymph infestation measured at 96 hr post-drug treatment by rice-stem dipping method; conditions: read-out: Log10LC50 (converted)
Nilaparvata lugens [6] = assay: (§1) Insecticidal activity against Nilaparvata lugens (brown planthopper) parental generation in rice stem assessed as mortality treated for 30 secs prior to nymph infestation measured at 96 hr post-drug treatment by rice-stem dipping method; conditions: read-out: Log10LC50 (converted)
Nilaparvata lugens [7] = assay: as §1, with “F1' progeny generated from reciprocal cross between male imidacloprid-susceptible strain and female imidaclporid-resistant strain” for “parental generation”
Nilaparvata lugens [8] = assay: as §1, with “F1 progeny generated from reciprocal cross between female imidacloprid-susceptible strain and male imidaclporid-resistant strain” for “parental generation”
Nilaparvata lugens [9] = assay: Insecticidal activity against 23 generation selection pressure-induced imidacloprid-resistance Nilaparvata lugens (brown planthopper) at third instar nymph stage in rice stem assessed as mortality treated for 30 secs prior to nymph infestation measured at 96 hr post-drug treatment by rice-stem dipping method

SMILES: O=[N+]([O-])/N=C1\NCCN1Cc1ccc(Cl)nc1 [IMIDACLOPRID]
- LC50 (Nilaparvata lugens [1]): 0.11 µg/mL (≈ 0.43 µM)
- RatioLC50 (Nilaparvata lugens [2]): 274.45
- RatioLC50 (Nilaparvata lugens [3]): 233.45
- RatioLC50 (Nilaparvata lugens [4]): 964.09
- LC50 (Nilaparvata lugens [5]): 9.43 mM
- LC50 (Nilaparvata lugens [6]): 62.5 mM
- LC50 (Nilaparvata lugens [7]): 30.2 µg/mL (≈ 118 µM)
- LC50 (Nilaparvata lugens [8]): 25.7 µg/mL (≈ 100 µM)
- LC50 (Nilaparvata lugens [9]): 106 µg/mL (≈ 415 µM)
